Reference: patent US20150038591A1, “Compounds, compositions and methods for the treatment of tauopathies” (PROTEOTECH INC., priority 2002, published 2015)

Key:
aggregated Tau-441 = molecular target: T1, aggregated Tau-441 (Homo sapiens, UniProt P10636); experiment: Thioflavin T fluorometry, dissolution/disruption/inhibition of preformed Tau aggregates; format: biochemical; conditions: 3 days at 37° C.
T1 construct: purchased rPeptide
Description: Thioflavin T binds specifically to aggregated Tau or Tau tangles, and this binding produces a fluorescence enhancement at 485 nm that is directly proportional to the amount of aggregated Tau. The higher the fluorescence, the greater the amount of aggregated Tau.
In this study, Tau-441 or TauRD was pre-fibrillized or aggregated by combining with Heparin (SIGMA) at 1:1 wt/wt, then incubation at 37° C. and shaking at 1400 rpm for 8 days. […] Following 3-days of co-incubation, 50 μl of each incubation mixture was transferred into a 96-well microtiter plate containing 150 μl of distilled water and 50 μl of a Thioflavin T solution (i.e. […] Thioflavin T in 250 mM phosphate buffer, pH 6.8). The fluorescence was read at 485 nm (444 nm excitation wavelength) using an ELISA plate fluorometer after subtraction with buffer alone or compound alone, as blank.

Tau aggregates = Tau aggregates (Homo sapiens, UniProt P10636); experiment: Thioflavin S fluorometry, dissolution/disruption/inhibition of Tau aggregates; format: biochemical
Description: In contrast to quantitation of Aβ fibrils, where ThioT is used, it was shown for tau aggregates that ThioS is more reproducible and independent of solvent characteristics. […] (Friedhoff, P et al. (1998) Biochem 10223-10230)
The Thio S assay involves the dilution of 500 μM ThioS stock 1:1 with PBS. Pipette 25 μl of this into the wells of a 96-well assay plate. Add 50 μl samples and 50 μl PBS and mix well. Read plates immediately on a fluorometer with the excitation set at 444 nm and emission set at 485 nm. […] Log transformed values are analyzed using “Nonlinear regression (curve fit) log(inhibitor) vs. normalized response—Variable slope” analysis.

[1] = Tau:test compound wt/wt ratio 1:0.001
[2] = Tau:test compound wt/wt ratio 1:0.01
[3] = Tau:test compound wt/wt ratio 1:0.1
[4] = Tau:test compound wt/wt ratio 1:1

T1 sequence (P10636 1-441 isoform P10636-8): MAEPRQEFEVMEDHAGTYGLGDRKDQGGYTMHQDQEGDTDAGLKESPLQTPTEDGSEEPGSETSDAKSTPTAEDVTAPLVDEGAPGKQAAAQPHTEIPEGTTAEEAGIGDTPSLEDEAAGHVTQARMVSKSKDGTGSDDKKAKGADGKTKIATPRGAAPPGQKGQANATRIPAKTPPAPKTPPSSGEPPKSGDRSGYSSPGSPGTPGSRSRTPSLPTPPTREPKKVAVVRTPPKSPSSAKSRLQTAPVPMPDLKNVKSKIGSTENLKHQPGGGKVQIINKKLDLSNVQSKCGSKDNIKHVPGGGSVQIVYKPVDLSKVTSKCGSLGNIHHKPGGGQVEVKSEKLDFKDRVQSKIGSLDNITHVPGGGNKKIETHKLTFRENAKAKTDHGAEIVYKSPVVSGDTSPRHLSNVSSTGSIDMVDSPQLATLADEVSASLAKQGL
Tau aggregates, sequence (P10636 1-441 isoform P10636-8): as above

SMILES | % dissolution/disruption/inhibition Tau (result ± S.D.) (aggregated Tau-441; [1]) [%] | % dissolution/disruption/inhibition Tau (result ± S.D.) (aggregated Tau-441; [2]) [%] | % dissolution/disruption/inhibition Tau (result ± S.D.) (aggregated Tau-441; [3]) [%] | % dissolution/disruption/inhibition Tau (result ± S.D.) (aggregated Tau-441; [4]) [%] | IC50 (Tau aggregates) [µM]
O=C(Nc1ccc(O)c(O)c1)C(=O)Nc1ccc(O)c(O)c1 [Compound 63, oxalic acid bis(3,4-dihydroxyanilide)] | 11.8 ± 8.06 | 16.5 ± 2.49 | 34.7 ± 1.69 | 77.8 ± 1.13 | 
O=C(Nc1ccc(O)c(O)c1)Nc1ccc(O)c(O)c1 [Compound 76, 1,3-Bis(3,4-dihydroxyphenyl)urea] | 17.4 ± 4.88 | 54.1 ± 2.62 | 91.2 ± 0.56 | 94.1 ± 2.99 | 3.95
O=C(NCCc1ccc(O)c(O)c1)Nc1ccc(O)c(O)c1 [Compound 78, 1-(3,4-Dihydroxyphenyl)-3-(3,4-dihydroxyphenethyl)urea] |  |  |  |  | 5.26

Continued, values first:

% dissolution/disruption/inhibition Tau (result ± S.D.) (aggregated Tau-441; [1]) [%] | % dissolution/disruption/inhibition Tau (result ± S.D.) (aggregated Tau-441; [2]) [%] | % dissolution/disruption/inhibition Tau (result ± S.D.) (aggregated Tau-441; [3]) [%] | % dissolution/disruption/inhibition Tau (result ± S.D.) (aggregated Tau-441; [4]) [%] | IC50 (Tau aggregates) [µM] | SMILES
17.0 ± 2.49 | 54.1 ± 2.62 | 89.2 ± 1.96 | 91.2 ± 2.59 | 32.4 | Oc1ccc(Cc2ccc(O)c(O)c2)cc1O [Compound 3, 3,4,3′,4′-Tetrahydroxydiphenylmethane]
19.3 ± 0.00 | 68.0 ± 1.71 | 92.8 ± 2.59 | 93.5 ± 4.42 | 10.8 | Oc1ccc(CCc2ccc(O)c(O)c2)cc1O [Compound 4, 1,2-bis(3,4-dihydroxyphenyl)ethane]
